# According to patent US9340790B2, “Method for constructing recombinant bacterium for producing non-native protein, and utilization of same” (RIKEN, priority 2010, dated 2016):
# “And” between values parts separate entries of the source, which are not always exact repeats. Identical values can stand only once.
# Assays:
# Assay type in all cases: cell-based, Escherichia coli
# [1] = test system: BW25113RFzero-iy strain; conditions: LB liquid culture medium with the non-natural amino acid added, shaking at 37° C. overnight
# Procedure: First, a minute amount of glycerol stock of a BW25113RFzero-iy strain was added to (i) an LB liquid culture medium and (ii) an LB liquid culture medium to which 3-iodotyrosine (IY), 3-bromotyrosine (BrY) or 3-chlorotyrosine (CIY) had been added, and incubated with shaking at 37° C. overnight. In this way, the growth of the BW25113RFzero-iy strain was examined.
# [2] = test system: RFzero-iy strains (BW25113RFzero-iy, HMS174RFzero-iy, BL21RFzero-iy); assay: Dependence of growth on 3-iodotyrosine, spotting on non-selective LB culture medium; conditions: non-selective LB culture medium with or without 3-iodotyrosine
# Procedure: Furthermore, how much the growth of each of the RFzero-iy strains depends on non-natural amino acids was checked. A cell culture having been incubated overnight was diluted, the diluted culture was spotted on (i) a non-selective LB culture medium containing 3-iodotyrosine and (ii) a non-selective LB culture medium containing no 3-iodotyrosine. The media were further incubated. […] This is consistent with the fact that UAG translation activity is necessary in a cell to avoid lethality caused by prfA knockout.
# [3] = test system: RFzero-q strain; assay: Chloramphenicol (Cm) resistance of cat transformants
# Source text: In order to confirm that the RFzero-q strain allows insertion of a glutamic acid at an amber codon, the RFzero-q strain was transformed with a mutated gene which codes for chloramphenicol acetyltransferase (cat), in which mutated gene there are three amber codons in ORF (such a mutated gene is referred to as cat(3Am)). […] The “X”s in the amino acid sequence shown in (a) of FIG. 5 indicate the positions of amber codons of the cat(3Am), and are glutamic acids in the case of the RFzero-q strain (SEQ ID NO: 17).
# (§1) Furthermore, a RFzero-q strain was transformed with a mutated gene which codes for cat, and in which mutated gene there are ten amber codons in ORF (such a mutated gene is referred to as cat(10Am)). […] The “X”s in the amino acid sequence shown in (b) of FIG. 5 indicate positions of amber codons of the cat(10Am), and are glutamic acids in the case of the RFzero-q strain (SEQ ID NO: 18).
# (§2) In order to examine if the UAG translation efficiency was improved, a cat(13Am) in which all 13 of the glutamine codons on the cat gene were replaced with UAG was introduced into the RFzero-q3 and RFzero-q7 strains, respectively. […] This was lower than Cm resistance (400 μg/ml) in the HST08 and RFzero-q strains transformed with pACYC184 carrying the wild-type cat gene.
# [4] = test system: HST08; assay: as above
# Source text: as §1, §2
# [5] = test system: RFzero-q3 strain; assay: Chloramphenicol (Cm) resistance of cat(13Am) transformant; conditions: RFzero-q3 strain with cat(13Am); listed as Cm
# Procedure: as §2
# [6] = test system: RFzero-q7 strain; assay: as above; conditions: RFzero-q7 strain with cat(13Am)
# Procedure: as §2
# [7] = test system: BW25113 (prfA+ strain); assay: Efficiency of non-natural amino acid introduction at UAG codon in prfA+ strain (western blotting, TRX-GST fusion); conditions: prfA+ condition, compared with 3-iodotyrosine
# Source text: In this experiment, a GST gene containing a UAG codon near the N terminal was introduced, together with an expression unit for introducing a non-natural amino acid, into BW25113 which was a prfA^+ strain. Then, the efficiency of translation was checked. The GST gene containing a UAG codon near the N terminal is incorporated in a plasmid so that a fusion protein of the GST and thioredoxin (TRX) is produced (refer to (a) of FIG. 31). The result is shown in (b) of FIG. 31. […] The strain shown in Lane 1 contains no construct that introduces a non-natural amino acid. As is clear from Lanes 4 to 6, strains into each of which a construct for assigning a UAG codon to 3-iodotyrosine, 4-azidophenylalanine or o-sulfotyrosine has been introduced generate total-length fusion proteins in the presence of corresponding non-natural amino acids (see arrow A in (b) of FIG. 31). Further, in these strains, proteins resulting from termination of translation at the UAG codon were also produced (see arrow B in (b) of FIG. 31). The number in parentheses below each lane indicates the percentage (%) of total-length fusion protein with respect to the sum of the proteins resulting from termination of translation and the full-length fusion protein thus produced. That is, the number indicates the efficiency of non-natural amino acid introduction at the UAG codon. […]
smiles,measurement,setting,value
"N[C@@H](Cc1ccc(O)c(I)c1)C(=O)O [IY, 3-iodotyrosine]",OD600,[1],1.36
same,Dependence of growth on the non-natural amino acid,[2],totally depended on the presence of 3-iodotyrosine
O=C(N[C@H](CO)[C@H](O)c1ccc([N+](=O)[O-])cc1)C(Cl)Cl [chloramphenicol],Cm resistance (chloramphenicol concentration in culture medium up to which resistance was shown),[3]; RFzero-q strain transformed with cat(3Am),400 µg/mL
same,Cm resistance (chloramphenicol concentration in culture medium up to which resistance was shown),[3]; RFzero-q strain transformed with cat(10Am),200 µg/mL
same,Cm resistance,[3]; RFzero-q strain transformed with pACYC184 carrying the wild-type cat gene,400 µg/mL
same,Cm resistance (chloramphenicol concentration in culture medium up to which resistance was shown),[3]; RFzero-q strain transformed with wild-type cat,400 µg/mL
same,Cm concentration at which the strain did not grow,[4]; HST08 into which cat(10Am) had been introduced,< 10 µg/mL
same,Cm resistance,[4]; HST08 transformed with pACYC184 carrying the wild-type cat gene,400 µg/mL
same,Cm resistance,[5],200 µg/mL and ~400 µg/mL
same,Cm resistance,[6],200 µg/mL
"N[C@@H](Cc1ccc(O)c(Cl)c1)C(=O)O [ClY, 3-chlorotyrosine]",OD600,[1],1.41
"N[C@@H](Cc1ccc(O)c(Br)c1)C(=O)O [BrY, 3-bromotyrosine]",OD600,[1],1.39
"[N-]=[N+]=Nc1ccc(C[C@H](N)C(=O)O)cc1 [AzF, 4-azidophenylalanine]",Efficiency of non-natural amino acid introduction at the UAG codon,[7],lower efficiency than 3-iodotyrosine
